Literature values in patent US4842859A, “Pharmaceutical compositions for reducing hyperlipidemia and platelet-aggregation” (priority 1986, dated 1989).

What was measured:
[1] = patients; prior art; listed as clofibrate
[2] = system: transient ischemic attacks; conditions: men; prior art

Structure (SMILES)	side effects / toxic effects [1]	effect on incidence of transient ischemic attacks [2]
CCOC(=O)C(C)(C)Oc1ccc(Cl)cc1 [Clofibrate]	decreased libido and breast tenderness	–
CC(=O)Oc1ccccc1C(=O)O [Aspirin]	–	decrease the incidence of transient ischemic attacks
